The values that follow come from ChEMBL document CHEMBL1177779, “Development of dual functional SPECT/fluorescent probes for imaging cerebral beta-amyloid plaques” (Bioorg Med Chem Lett, 2010).

Data set [1] can be described thus: Displacement of [125I]IMPY from amyloid beta (1-42) after 3 hrs by gamma counting.
In data set [2] the test system is Stomach. The data set is described as follows: Biodistribution in ddY mouse stomach assessed per organ at 7.77 KBq, iv after 2 mins by gamma counting. It counts as ADME, organism-based. The conditions noted are these: in vivo.
For data set [3], the system named is Heart. The data set is described as follows: Biodistribution in ddY mouse heart assessed per gram of tissue at 7.77 KBq, iv after 30 mins by gamma counting. The data set is classed as ADME, organism-based. The conditions noted are these: in vivo, 0.5 h.
Data set [4] deals with Brain. The data set is described as follows: Biodistribution in ddY mouse brain assessed per gram of tissue at 7.77 KBq, iv after 60 mins by gamma counting. It counts as ADME, organism-based. The conditions noted are these: in vivo, 1 h.
In data set [5] the test system is Spleen. The data set can be described thus: Biodistribution in ddY mouse spleen assessed per gram of tissue at 7.77 KBq, iv after 2 mins by gamma counting. The following applies: in vivo. It counts as ADME, organism-based.
Data set [6] concerns Brain. The data set can be described thus: Biodistribution in ddY mouse brain assessed per gram of tissue at 7.77 KBq, iv after 2 mins by gamma counting. The data set is classed as ADME, organism-based. The conditions noted are these: in vivo.
For data set [7], the system named is Intestine. The data set is described as follows: Biodistribution in ddY mouse intestine assessed per gram of tissue at 7.77 KBq, iv after 60 mins by gamma counting. It counts as ADME, organism-based. The following applies: in vivo, 1 h.
Data set [8] deals with Liver. The data set is described as follows: Biodistribution in ddY mouse liver assessed per gram of tissue at 7.77 KBq, iv after 10 mins by gamma counting. The data set is classed as ADME, organism-based. The conditions noted are these: in vivo.
Data set [9] has as its system Blood. The data set is described as follows: Biodistribution in ddY mouse blood assessed per gram of tissue at 7.77 KBq, iv after 2 mins by gamma counting. The data set is classed as ADME, organism-based. The following applies: in vivo.
The test system of data set [10] is Spleen. The data set is described as follows: Biodistribution in ddY mouse spleen assessed per gram of tissue at 7.77 KBq, iv after 60 mins by gamma counting. The data set is classed as ADME, organism-based. The conditions noted are these: in vivo, 1 h.
Data set [11] concerns Blood. The data set can be described thus: Biodistribution in ddY mouse blood assessed per gram of tissue at 7.77 KBq, iv after 30 mins by gamma counting. The conditions noted are these: in vivo, 0.5 h. The data set is classed as ADME, organism-based.
The subject of data set [12] is Blood. The data set can be described thus: Biodistribution in ddY mouse blood assessed per gram of tissue at 7.77 KBq, iv after 60 mins by gamma counting. The data set is classed as ADME, organism-based. The following applies: in vivo, 1 h.
In data set [13] the test system is Pancreas. The data set can be described thus: Biodistribution in ddY mouse pancreas assessed per gram of tissue at 7.77 KBq, iv after 2 mins by gamma counting. The data set is classed as ADME, organism-based. The following applies: in vivo.
The test system of data set [14] is Kidney. The data set is described as follows: Biodistribution in ddY mouse kidney assessed per gram of tissue at 7.77 KBq, iv after 10 mins by gamma counting. The following applies: in vivo. It counts as ADME, organism-based.
Data set [15] has as its system Stomach. The data set is described as follows: Biodistribution in ddY mouse stomach assessed per organ at 7.77 KBq, iv after 10 mins by gamma counting. It counts as ADME, organism-based. The conditions noted are these: in vivo.
Data set [16] relates to Intestine. The data set is described as follows: Biodistribution in ddY mouse intestine assessed per gram of tissue at 7.77 KBq, iv after 30 mins by gamma counting. The following applies: in vivo, 0.5 h. The data set is classed as ADME, organism-based.
Data set [17] deals with Liver. The data set can be described thus: Biodistribution in ddY mouse liver assessed per gram of tissue at 7.77 KBq, iv after 30 mins by gamma counting. The following applies: in vivo, 0.5 h. The data set is classed as ADME, organism-based.
The subject of data set [18] is Spleen. The data set is described as follows: Biodistribution in ddY mouse spleen assessed per gram of tissue at 7.77 KBq, iv after 10 mins by gamma counting. It counts as ADME, organism-based. The conditions noted are these: in vivo.
The subject of data set [19] is Intestine. The data set can be described thus: Biodistribution in ddY mouse intestine assessed per gram of tissue at 7.77 KBq, iv after 10 mins by gamma counting. It counts as ADME, organism-based. The conditions noted are these: in vivo.
The test system of data set [20] is Pancreas. The data set is described as follows: Biodistribution in ddY mouse pancreas assessed per gram of tissue at 7.77 KBq, iv after 30 mins by gamma counting. The data set is classed as ADME, organism-based. The following applies: in vivo, 0.5 h.
In data set [21] the test system is Heart. The data set is described as follows: Biodistribution in ddY mouse heart assessed per gram of tissue at 7.77 KBq, iv after 10 mins by gamma counting. It counts as ADME, organism-based. The following applies: in vivo.
Data set [22] concerns Kidney. The data set can be described thus: Biodistribution in ddY mouse kidney assessed per gram of tissue at 7.77 KBq, iv after 2 mins by gamma counting. The data set is classed as ADME, organism-based. The conditions noted are these: in vivo.
Data set [23] concerns Spleen. The data set is described as follows: Biodistribution in ddY mouse spleen assessed per gram of tissue at 7.77 KBq, iv after 30 mins by gamma counting. The following applies: in vivo, 0.5 h. It counts as ADME, organism-based.
The test system of data set [24] is Kidney. The data set can be described thus: Biodistribution in ddY mouse kidney assessed per gram of tissue at 7.77 KBq, iv after 60 mins by gamma counting. The conditions noted are these: in vivo, 1 h. It counts as ADME, organism-based.
Data set [25] relates to Heart. The data set can be described thus: Biodistribution in ddY mouse heart assessed per gram of tissue at 7.77 KBq, iv after 2 mins by gamma counting. The conditions noted are these: in vivo. The data set is classed as ADME, organism-based.
Data set [26] relates to Kidney. The data set is described as follows: Biodistribution in ddY mouse kidney assessed per gram of tissue at 7.77 KBq, iv after 30 mins by gamma counting. The data set is classed as ADME, organism-based. The following applies: in vivo, 0.5 h.
The subject of data set [27] is Heart. The data set is described as follows: Biodistribution in ddY mouse heart assessed per gram of tissue at 7.77 KBq, iv after 60 mins by gamma counting. The following applies: in vivo, 1 h. The data set is classed as ADME, organism-based.
The test system of data set [28] is Pancreas. The data set is described as follows: Biodistribution in ddY mouse pancreas assessed per gram of tissue at 7.77 KBq, iv after 10 mins by gamma counting. The data set is classed as ADME, organism-based. The conditions noted are these: in vivo.
The test system of data set [29] is Stomach. The data set can be described thus: Biodistribution in ddY mouse stomach assessed per organ at 7.77 KBq, iv after 60 mins by gamma counting. The following applies: in vivo, 1 h. The data set is classed as ADME, organism-based.
Data set [30] deals with Brain. The data set is described as follows: Biodistribution in ddY mouse brain assessed per gram of tissue at 7.77 KBq, iv after 30 mins by gamma counting. It counts as ADME, organism-based. The conditions noted are these: in vivo, 0.5 h.
Data set [31] deals with Blood. The data set is described as follows: Biodistribution in ddY mouse blood assessed per gram of tissue at 7.77 KBq, iv after 10 mins by gamma counting. The data set is classed as ADME, organism-based. The conditions noted are these: in vivo.
Data set [32] has as its system Pancreas. The data set can be described thus: Biodistribution in ddY mouse pancreas assessed per gram of tissue at 7.77 KBq, iv after 60 mins by gamma counting. The data set is classed as ADME, organism-based. The following applies: in vivo, 1 h.
Data set [33] has as its system Liver. The data set can be described thus: Biodistribution in ddY mouse liver assessed per gram of tissue at 7.77 KBq, iv after 2 mins by gamma counting. The following applies: in vivo. The data set is classed as ADME, organism-based.
Data set [34] concerns Stomach. The data set is described as follows: Biodistribution in ddY mouse stomach assessed per organ at 7.77 KBq, iv after 30 mins by gamma counting. It counts as ADME, organism-based. The conditions noted are these: in vivo, 0.5 h.
Data set [35] has as its system Intestine. The data set can be described thus: Biodistribution in ddY mouse intestine assessed per gram of tissue at 7.77 KBq, iv after 2 mins by gamma counting. The data set is classed as ADME, organism-based. The following applies: in vivo.
The subject of data set [36] is Liver. The data set is described as follows: Biodistribution in ddY mouse liver assessed per gram of tissue at 7.77 KBq, iv after 60 mins by gamma counting. The data set is classed as ADME, organism-based. The conditions noted are these: in vivo, 1 h.
The test system of data set [37] is Brain. The data set is described as follows: Biodistribution in ddY mouse brain assessed per gram of tissue at 7.77 KBq, iv after 10 mins by gamma counting. It counts as ADME, organism-based. The conditions noted are these: in vivo.

pKi: −log10 of the molar value.

Take `CC1=CC(C)=[N+]2C1=Cc1ccc(/C=C/c3ccc(-c4ccc(I)cc4)s3)n1[B-]2(F)F`: in data set [1], the pKi (commonly the negative decadic logarithm of the Ki, by convention in mol/L) is 6.97 and the inhibition entry was “Dose-dependent effect”.
On to `CC1=CC(C)=[N+]2C1=Cc1ccc(/C=C/c3ccc(-c4ccc([125I])cc4)s3)n1[B-]2(F)F`, for which the Drug uptake was 1.4 %ID with Stomach [2]; 2.31 % ID/g in the data set on Heart [3]; 0.14 % ID/g with Brain [4]; 16.12 % ID/g in the data set with Spleen [5]; 0.4 % ID/g in the data set on Brain [6]; 3.04 % ID/g in the data set with Intestine [7]. Further, the Drug uptake with Liver [8] was found to be 46.02 % ID/g; with Blood [9] it was 11.67 % ID/g; with Spleen [10], 21.52 % ID/g; in the data set on Blood [11], 3.09 % ID/g; in the data set on Blood [12], 2.44 % ID/g; in the data set with Pancreas [13] it was 1.19 % ID/g. The Drug uptake with Kidney [14] is 4.79 % ID/g; in the data set with Stomach [15], 4.73 %ID; with Intestine [16], 1.91 % ID/g; in the data set with Liver [17], 45.87 % ID/g; with Spleen [18] it was 26.9 % ID/g; in the data set on Intestine [19] it was 0.93 % ID/g. Moreover, the Drug uptake in the data set on Pancreas [20] is 0.72 % ID/g; in the data set on Heart [21], 2.95 % ID/g; with Kidney [22], 5.39 % ID/g; with Spleen [23], 28.21 % ID/g; with Kidney [24] it was 4.43 % ID/g; in the data set on Heart [25] it was 5.59 % ID/g. Besides, the Drug uptake worked out at 4.46 % ID/g in the data set with Kidney [26]; 2.3 % ID/g with Heart [27]; 0.74 % ID/g with Pancreas [28]; 5.5 %ID in the data set with Stomach [29]; 0.14 % ID/g with Brain [30]; 4.09 % ID/g with Blood [31]. The Drug uptake is recorded as 0.92 % ID/g in the data set on Pancreas [32]; 35.51 % ID/g with Liver [33]; 4.79 %ID with Stomach [34]; 0.48 % ID/g with Intestine [35]; 45.78 % ID/g in the data set on Liver [36]; 0.19 % ID/g with Brain [37].
